What was measured:
[1] = tested on: SKBR3 tumor cells (HER2+); test: In vitro cytotoxic activity screening, CTG assay, SKBR3; format: cell-based
Procedure: (§1) In this experiment, the ATP content was determined using CTG to reflect the survival condition of the tumor cells. […] The killing effect of the toxin molecule was then assayed according to this condition.
(§2) According to the purpose of the experiment, two disease models of breast cancer and NSCLC were selected, and three cell strains of SKBR3 tumor cells (HER2+, ATCC, Cat #HTB-30), MDA-MB-468 (HER2-, ATCC, Cat #HTB-132) and A549 (human non-small cell lung cancer cells, ATCC, Cat #CCL-185) were selected for screening.
(§3) The cells were counted, and 4.3×10^5, 7.2×10^5 and 11.5×10^5 cells were each added to a culture solution to give a final volume of 26 mL. 180 μL of cell suspension was added to each well in columns 2 to 11 of a 96-well plate (Corning, Cat #3903) to give cell densities of 3K, 5K and 8K per well. Wells in column 12 were each filled with 200 μL of culture solution and the remaining wells were each filled with PBS. The SKBR3 and MDA-MB-468 cells were subjected to the same operations described above. […] 2 mM stock solution (stock solution diluted 10-fold in DMSO) was prepared in column 1 of drug preparation plate 1, and then 10-fold gradient dilution in DMSO was performed through column 10, and the wells in column 11 were filled with DMSO. […] The absorption value was read using a microplate reader and IC50 was calculated.

MDA-MB-468 (HER2-) = test: In vitro cytotoxic activity screening, CTG assay, MDA-MB-468; format: cell-based
Procedure: as §1, §2, §3

[2] = Pharmacokinetic experiment for beagles, intravenous administration; details: 0.5 mg/kg
Procedure: (§4) Plasma samples were stored in a refrigerator at −80° C. prior to testing.
as §4

[3] = tested on: A549 (human non-small cell lung cancer cells); test: In vitro cytotoxic activity screening, CTG assay, A549; format: cell-based
Procedure: as §1, §2, §3

For `C=C1C[C@@H]2CC[C@@]34C[C@H]5O[C@H]6[C@@H](O3)[C@H]3O[C@H](CC[C@@H]3O[C@H]6[C@H]5O4)CC(=O)C[C@@H]3[C@@H](OC)[C@@H](C[C@@H](CN)OC)O[C@H]3C[C@H]3O[C@@H](CC[C@@H]1O2)C[C@@H](C)C3=C` [Compound 1], the IC50 ([1]; Homo sapiens, SK-BR-3, read-out: IC50 (nM) SKBR3) was 0.205 nM, the “Maximum inhibition rate (%) SKBR3” value ([1]; SKBR3, CTG) was 96.87% and the IC50 (MDA-MB-468 (HER2-); Homo sapiens, MDA-MB-468, read-out: IC50 (nM) MDA-MB-468) was 0.183 nM. For the same compound, the “Maximum inhibition rate (%) MDA-MB-468” value (MDA-MB-468 (HER2-); MDA-MB-468, CTG) was 88.01%, the “Plasma concentration C5 min” value [2] was 82.1 ng/mL and the “Maximum inhibition rate (%) A549” value ([3]; A549, CTG) was 81.34%. For the same compound, the IC50 ([3]; Homo sapiens, A549, read-out: IC50 (nM) A549) was 0.515 nM.

Source: patent publication US20240382607A1 (priority 2021, published 2024)
